Data as given in US6602880B2, “3-phenyl-3,7-diazabicyclo[3.3.1] nonane compounds, process for preparing them, pharmaceutical compositions containing them and use thereof to inhibit cardiac arrhythmia” (priority 2001, dated 2003).

Key:
iKs = target: T1, iKs (Canis lupus familiaris, UniProt A0A8I3N8W8); assay: Blocking action on slow delayed rectifier potassium current iKs, whole-cell patch-clamp on dog cardiac muscle cells; assay type: cell-based; settings: dog left ventricle cardiac muscle cells; 1 μM nisoldipine and 2 μM E-4031 added; holding potential -40 mV
T1 construct: the individualised cardiac muscle cells are investigated electrophysiologically using the “whole-cell patch-clamp” method; from tissue; host or cells: isolated dog left ventricular cardiac muscle cells
T1 sequence (A0A8I3N8W8 1-676): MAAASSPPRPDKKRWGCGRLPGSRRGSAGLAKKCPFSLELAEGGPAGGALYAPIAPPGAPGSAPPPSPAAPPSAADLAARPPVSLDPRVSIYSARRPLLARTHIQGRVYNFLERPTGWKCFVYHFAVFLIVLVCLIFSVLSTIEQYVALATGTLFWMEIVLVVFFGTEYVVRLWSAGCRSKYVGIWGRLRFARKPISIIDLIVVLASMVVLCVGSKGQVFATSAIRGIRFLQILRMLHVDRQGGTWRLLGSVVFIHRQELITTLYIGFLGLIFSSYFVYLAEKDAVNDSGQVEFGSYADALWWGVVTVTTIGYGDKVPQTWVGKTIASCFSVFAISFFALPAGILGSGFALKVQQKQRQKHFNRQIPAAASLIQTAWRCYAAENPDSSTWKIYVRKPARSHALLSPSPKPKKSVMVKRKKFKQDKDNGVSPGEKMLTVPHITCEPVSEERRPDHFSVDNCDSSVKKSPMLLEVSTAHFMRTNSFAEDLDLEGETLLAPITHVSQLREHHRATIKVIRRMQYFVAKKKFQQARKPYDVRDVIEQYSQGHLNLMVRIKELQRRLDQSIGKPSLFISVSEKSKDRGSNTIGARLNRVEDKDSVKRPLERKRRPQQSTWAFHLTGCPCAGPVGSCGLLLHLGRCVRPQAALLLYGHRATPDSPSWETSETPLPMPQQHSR
Procedure: The iKs can be measured selectively in the manner described below: the hearts are quickly removed from anaesthetised dogs and a muscle section from the left ventricle is perfused with collagenase-containing solution via an arterial vessel. The well-dissociated tissue is comminuted and the individualised cardiac muscle cells are investigated electrophysiologically using the “whole-cell patch-clamp” method (cf. O. P. […] The iKs is then determined using the current amplitude immediately after a 5-second pulse protocol of -40 mV holding potential at most +50 mV depolarisation. The iKr (HERG) can be measured selectively in the manner stated below: to measure the iKr, a cell line (human embryonal kidney cells, HEK293; see e.g. American Tissue Culture Collection (=ATCC) No.: CRL-1573) is used, which is stably transfected with the gene for the iKr (HERG) (cf. Z. Zhou et al., Biophysical Journal 74(1) (1998) 230-241). […] The iKr is determined using the current amplitude at -40 mV holding potential immediately after a 500 ms pulse protocol of -75 mV holding potential at most +10 mV depolarisation. That substance concentration at which 50% of the maximum current is blocked (IC50 %) is determined from the inhibitions of the corresponding current at different substance concentrations.

iKr (HERG) = target: T2, iKr (HERG) (Homo sapiens, UniProt Q12809); assay: Blocking action on rapid delayed rectifier potassium current iKr (HERG), HEK293 cells stably transfected; assay type: cell-based; settings: HEK293 cells stably transfected with HERG
T2 construct: expressed in transfected cells; host or cells: HEK293 (ATCC CRL-1573), stably transfected
T2 sequence (Q12809 whole entry): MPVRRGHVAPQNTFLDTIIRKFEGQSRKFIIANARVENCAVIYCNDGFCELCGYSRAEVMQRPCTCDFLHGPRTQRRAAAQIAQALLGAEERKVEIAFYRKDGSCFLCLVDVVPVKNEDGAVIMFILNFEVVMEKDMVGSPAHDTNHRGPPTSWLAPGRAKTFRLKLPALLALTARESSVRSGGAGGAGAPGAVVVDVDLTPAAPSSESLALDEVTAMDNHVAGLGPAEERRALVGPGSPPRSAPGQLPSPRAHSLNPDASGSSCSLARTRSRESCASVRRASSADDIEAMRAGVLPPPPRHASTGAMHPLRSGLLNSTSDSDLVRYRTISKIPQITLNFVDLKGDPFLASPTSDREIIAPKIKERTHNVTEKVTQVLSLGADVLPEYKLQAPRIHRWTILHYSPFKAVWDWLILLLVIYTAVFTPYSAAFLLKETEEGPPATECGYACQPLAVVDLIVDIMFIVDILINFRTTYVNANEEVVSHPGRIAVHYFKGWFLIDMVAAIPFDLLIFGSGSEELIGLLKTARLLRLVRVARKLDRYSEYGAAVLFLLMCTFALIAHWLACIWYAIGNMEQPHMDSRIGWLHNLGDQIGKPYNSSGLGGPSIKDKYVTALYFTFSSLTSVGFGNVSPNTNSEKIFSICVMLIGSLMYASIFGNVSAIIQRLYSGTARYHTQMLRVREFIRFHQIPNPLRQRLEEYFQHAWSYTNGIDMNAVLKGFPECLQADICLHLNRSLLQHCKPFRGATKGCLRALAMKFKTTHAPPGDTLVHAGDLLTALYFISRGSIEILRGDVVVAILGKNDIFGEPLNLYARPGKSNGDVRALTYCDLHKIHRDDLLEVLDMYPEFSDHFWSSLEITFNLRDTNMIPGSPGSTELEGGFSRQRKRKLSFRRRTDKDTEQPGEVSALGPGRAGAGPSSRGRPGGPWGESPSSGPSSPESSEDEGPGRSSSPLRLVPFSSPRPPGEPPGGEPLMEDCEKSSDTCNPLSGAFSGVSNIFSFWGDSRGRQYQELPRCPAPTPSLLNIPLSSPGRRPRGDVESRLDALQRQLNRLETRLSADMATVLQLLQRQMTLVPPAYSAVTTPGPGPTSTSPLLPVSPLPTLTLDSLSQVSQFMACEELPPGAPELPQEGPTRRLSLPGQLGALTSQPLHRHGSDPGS
Procedure: The iKr (HERG) can be measured selectively in the manner stated below: to measure the iKr, a cell line (human embryonal kidney cells, HEK293; see e.g. American Tissue Culture Collection (=ATCC) No.: CRL-1573) is used, which is stably transfected with the gene for the iKr (HERG) (cf. Z. Zhou et al., Biophysical Journal 74(1) (1998) 230-241). […] The iKr is determined using the current amplitude at −40 mV holding potential immediately after a 500 ms pulse protocol of −75 mV holding potential at most +10 mV depolarisation. That substance concentration at which 50% of the maximum current is blocked (IC50 %) is determined from the inhibitions of the corresponding current at different substance concentrations.

[1] = system: isolated perfused rabbit hearts; assay: In vitro potential proarrhythmogenity on isolated perfused rabbit hearts (monophasic action potential); settings: three hearts (n=3), one value each; for Instability: control about 7 ms; for Triangulation: control about 90 ms
Procedure: The extent of the potential proarrhythmogenity of Class III antiarrhythmic substances can be estimated using the measurement of electrophysiological parameters such as “instability” and “triangulation” (see below) on the monophasic action potential, derived from isolated perfused rabbit hearts. The pharmacological test set forth below was performed analogously to the method fundamentally described in L. M. Hondeghem et al., Circulation 103 (2001) 2004-2013 (referred to hereafter as “Hondeghem et al.”), in conjunction with L. M. Hondeghem, Journal of Cardiovascular Electrophysiology 5(8) (1994) 711-721 (referred to hereafter as “Hondeghem”). The hearts were quickly removed from rabbits which had been sacrificed by a blow to the back of the neck, and were immediately perfused in a Langendorff arrangement under constant pressure (80 cm H2O) with temperature-controlled oxygenated nutrient solution. The heart was stimulated with different stimulation protocols using two stimulation electrodes which were each arranged in the region of the right and left crus of the bundle of His (cf. “Hondeghem et al.”). Two further electrodes (one discharge electrode endocardially in the region of the septum of the left ventricle and a reference electrode epicardially on the left ventricle) served to discharge the monophasic action potential.
Using the monophasic action potential duration with different repolarisation levels (APD10-90; “APD10” designates the action potential duration until the occurrence of 10% of repolarisation), the following parameters were derived as indicators of the proarrhythmogenity:
(1) Instability: The change in the APD60 from heartbeat to heartbeat is designated “instability”. Under control conditions, this value is on average about 7 milliseconds (=ms). Greater deviations from this average value towards a longer duration (>7 ms) indicate an increased probability of occurrence for proarrhythmias caused by the test substances investigated.
(2) Triangulation: The repolarisation time in ms from APD30 to ADP90 is designated “triangulation”. Under control conditions, this value is usually about 90 ms.
The results obtained with the method described above on three hearts (n=3) in each case are reproduced in the following Table D.

[2] = system: isolated papillary muscle of the right ventricle of guinea pigs; assay: In vitro functional refractory period on electrically stimulated papillary muscles from guinea-pig hearts; settings: concentration prolonging FRP by 12 milliseconds; stimulation 3 Hz; 20 minutes after addition
Procedure: The heart was quickly removed from guinea pigs which had been sacrificed by a blow to the back of the neck and the papillary muscles of the right ventricle were fixed in organ baths through which temperature-controlled oxygenated nutrient solution flowed. The muscle preparations were electrically stimulated with a frequency of 3 Hz. The test substances were added to the organ baths in increasing concentrations (cumulatively). In each case 20 minutes after addition of the test substance, the functional refractory period was determined by means of a double pulse protocol. In each case a cumulative concentration/action curve was plotted from the measured values. The concentration at which a prolongation of the FRP by 12 milliseconds was achieved was calculated from this as the effective concentration (=FRP-EC+12ms).

anaesthetised cats = assay: In vivo fibrillation threshold in anaesthetised cats; set-up: species or system cat; settings: more marked on the atrium than on the ventricle
Text: Such an atrioselective increase in the fibrillation threshold is an indication that the tested compound has a beneficial action profile with a reduced proarrhythmogenity risk.

mice = assay: Determination of the minimum toxic dose; assay type: in vivo; settings: mouse p.o.; lowest dose causing death or severe toxic symptoms; maximum dose 300 mg/kg; observed 72 hours
Procedure: Male mice each having a weight of 20 to 25 g were administered maximum doses of 300 mg/kg of the test substance p.o. The animals were observed carefully for toxicity symptoms for 3 hours. Additionally all symptoms and deaths were recorded over a period of 72 hours after administration. Concomitant symptoms were likewise observed and recorded. If death or severe toxic symptoms were observed, further mice were administered increasingly lower doses until toxic symptoms no longer occurred. The lowest dose which caused death or severe toxic symptoms is indicated in the following Table A as the minimum toxic dose.

[3] = system: anaesthetised guinea pigs; assay: In vivo antiarrhythmic properties (ERP) and blood pressure under tachycardic conditions in anaesthetised guinea pigs; set-up: species or system guinea pig; settings: i.v.
Text: The effects of the substances on the effective refractory period (=ERP) and the blood pressure on i.v. administration with increased heart rate were investigated on anaesthetised guinea pigs. A bipolar stimulation catheter was inserted into the right ventricle of the animals via a jugular vein under full anaesthesia. The heart rates of the animals were kept at about 150% of their normal heart rates via this catheter by means of electrical stimulation during the entire investigation. A cannula for i.v. administration of the test substances was inserted in the other jugular vein. During the investigation, the systolic and the diastolic arterial blood pressure (=SAP and DAP) were measured in a carotid artery via a pressure gauge (Statham pressure transducer). The test substances were administered i.v. in increasing doses (cumulatively). Before administration of the first dose and in each case 8 minutes after administration of each dose, the ERP was determined by means of a double pulse protocol. The dose at which a prolongation of the ERP to 115% of the starting value was achieved was considered as the effective dose (=ERP-ED115). Effective doses for a hypotensive effect were considered as the dose at which the SAP was decreased to 85% of its starting value (=SAP-ED85), and the dose at which the DAP was decreased to 85% of its starting value (=DAP-ED85).

Row | Compound | IC50 (iKs) [nM] | IC50 (iKr (HERG)) [nM] | Instability ([1]; 0.3 μM) | Triangulation ([1]; 0.3 μM) | Instability ([1]; 1 μM) | Triangulation ([1]; 1 μM) | Antiarrhythmic action FRP-EC+12 ms [2] [µmol/L] | increase in the fibrillation threshold (anaesthetised cats; administration i.v.) | increase in the fibrillation threshold (anaesthetised cats; administration p.o.) | Minimum toxic dose (mice) [mg/kg] | Antiarrhythmic action ERP-ED115 ([3]; cumulative doses, dose prolonging ERP to 115% of starting value, heart rate about 150% of normal) [µmol/kg] | Vasodepression ED85 DAP ([3]; dose decreasing diastolic arterial pressure to 85% of starting value, >> = no tendency to vasodepression at the doses tested) | Vasodepression ED85 SAP ([3]; dose decreasing systolic arterial pressure to 85% of starting value, >> = no tendency to vasodepression at the doses tested)
1 | CCCCN1CC2CN(c3ccc(C#N)cc3)CC(C1)C21CCCC1.O=C(O)C(O)C(O)C(=O)O [Example 4, 7-(n-Butyl)-3-(4-cyanophenyl)-9,9-tetramethylene-3,7-diazabicyclo[3.3.1]nonane Hydrogen Tartrate] | 700 | 20 | 6/3/3 | 48/64/62 | 6/25/7 | 52/79/79 | 0.8 | dosage-dependent, clear, long-lasting increase in the fibrillation threshold | dosage-dependent, clear, long-lasting increase in the fibrillation threshold |  |  |  | 
2 | CCCCN1CC2CN(c3ccc([N+](=O)[O-])cc3[N+](=O)[O-])CC(C1)C2(C)C [Example 1, 7-(n-Butyl)-3-(2,4-dinitrophenyl)-9,9-dimethyl-3,7-diazabicyclo[3.3.1]nonane] |  |  |  |  |  |  | 0.6 |  |  | 300 | 0.4 | >>10 μmol/kg | >>10 μmol/kg
